Reference: patent US20240366648A1, “NAD-AUGMENTATION THERAPY FOR PARKINSON'S DISEASE” (Vestlandets Innovasjonsselskap AS (VIS), priority 2021, published 2024)

How the values were obtained:
NAD metabolome in PBMCs = assay: Metabolomic analysis (LC-MS) in PBMCs; assay type: in vivo, human; conditions: oral NR 1000 mg/day, 30 days
Protocol: Biological material was collected at both visits, following a minimum 6-hour fasting and within 6 hours after study drug intake for visit 2. Sampling included whole blood, serum, peripheral blood mononuclear cells (PBMCs), cerebrospinal fluid (CSF) and muscle biopsy. Lumbar puncture was performed according to standard clinical procedures to collect 10 ml CSF. Needle biopsy of the vastus lateralis muscle was performed using a Bard Magnum biopsy gun (BD©, United States) and 12G×10 cm biopsy needles. Muscle biopsies were immediately dissected to remove any non-muscle tissue (e.g., fat or fascia) and snap-frozen in liquid nitrogen.
Standard substances of all the targeted compounds were used to prepare stock standard solutions and these solutions were mixed and diluted to make serially diluted standard solutions in an internal standard solution containing 11 isotope-labeled compounds (NAD-13C5, NADH-d5, nicotinamide riboside-d4, nicotinic-d4 acid, nicotinic acid-d4 riboside, AMP-15N5, ATP-13C10, nicotinamide-d4, 1-methylnicotinamide-d3, adenosine-13C5 and GTP-13C10) in a concentration range of 0.0002 to 20 nmol/mL. […] For metabolomic analyses in PBMCs, several aliquots of one sample were thawed on ice, centrifuged (10 min, 350×g, 4° C.), resuspended in ice-cold PBS and counted on a countess II cell counter. […]
For UPLC-MRM/MS, 10 μL aliquots of each standard solution and each sample solutions were injected to run LCMRM/MS either on a Waters Acquity UPLC coupled to a Sciex QTRAP 6500 Plus mass spectrometer with (−) ion detection or ESI or on an Agilent 1290 UHPLC system coupled to an Agilent 6495B QQQ mass spectrometer with (+) ion detection. […] Concentrations of individual metabolites detected in each sample were calculated by constructing linear-regression curves of individual metabolites with the analyte-to-internal standard peak area ratios (As/Ai) of standard solutions in each set of LC-MS runs and then by interpolating the calibration curves with the as/Ai values measured from injections of sample solutions in an appropriate concentration range for each compound. […]

[1] = system: nigrostriatal degeneration or denervation (DAT loss); assay: Follow-up DAT-scan of phase I participants (Example 4); assay type: in vivo, human
From the text: In the study of the present Example 4, […] of the participants from the study of Example 2 (9 receiving placebo and 11 receiving NR) were examined by a second DAT-scan 1-1.5 year after the completion of the study, for entry into the study of Example 3. […] FIG. 15 represents box plots showing the change (delta) of the DAT-scan tracer uptake in the posterior putamen between the second and first examination (delta=scan2−scan1). […] The data is normally distributed (Shapiro-Wilk normality test).

## NC(=O)c1ccc[n+]([C@@H]2O[C@H](CO)[C@@H](O)[C@H]2O)c1 [NR, nicotinamide riboside]
NAD metabolome in PBMCs
  Me-Nam level in PBMCs: increase
  NAAD level in PBMCs: increase
  acetyl-CoA, CoA, SAM and its metabolites, energy compounds such as ATP in PBMCs: no significant change
[1]; second scan 1-1.5 year after the study, posterior putamen, t-test p=0.35
  progression of the DAT loss between first and second DAT-scan, NR vs placebo group: no significant difference
[1]; smaller difference between the two examinations, p=0.35
  trend in progression of nigrostriatal denervation in NR group: non-significant trend for decreased progression
